From patent publication US20120029190A1, “COMPOUNDS FOR TREATING DISORDERS MEDIATED BY METABOTROPIC GLUTAMATE RECEPTOR 5, AND METHODS OF USE THEREOF” (priority 2009, published 2012)

These compounds were tested against T1, human recombinant mGluR5 receptor (Homo sapiens, UniProt P41594) (assay: mGluR5 in vitro functional assay (aequorin cell line, inhibition of glutamate EC80 response)). Conditions: Table 1; aequorin cell line expressing human mGluR5, reference agonist glutamate at EC80; obtained in duplicate; read-out: IC50.
T1 construct: expressed in transfected cells; expression induced with doxycycline
T1 sequence (P41594 21-1212): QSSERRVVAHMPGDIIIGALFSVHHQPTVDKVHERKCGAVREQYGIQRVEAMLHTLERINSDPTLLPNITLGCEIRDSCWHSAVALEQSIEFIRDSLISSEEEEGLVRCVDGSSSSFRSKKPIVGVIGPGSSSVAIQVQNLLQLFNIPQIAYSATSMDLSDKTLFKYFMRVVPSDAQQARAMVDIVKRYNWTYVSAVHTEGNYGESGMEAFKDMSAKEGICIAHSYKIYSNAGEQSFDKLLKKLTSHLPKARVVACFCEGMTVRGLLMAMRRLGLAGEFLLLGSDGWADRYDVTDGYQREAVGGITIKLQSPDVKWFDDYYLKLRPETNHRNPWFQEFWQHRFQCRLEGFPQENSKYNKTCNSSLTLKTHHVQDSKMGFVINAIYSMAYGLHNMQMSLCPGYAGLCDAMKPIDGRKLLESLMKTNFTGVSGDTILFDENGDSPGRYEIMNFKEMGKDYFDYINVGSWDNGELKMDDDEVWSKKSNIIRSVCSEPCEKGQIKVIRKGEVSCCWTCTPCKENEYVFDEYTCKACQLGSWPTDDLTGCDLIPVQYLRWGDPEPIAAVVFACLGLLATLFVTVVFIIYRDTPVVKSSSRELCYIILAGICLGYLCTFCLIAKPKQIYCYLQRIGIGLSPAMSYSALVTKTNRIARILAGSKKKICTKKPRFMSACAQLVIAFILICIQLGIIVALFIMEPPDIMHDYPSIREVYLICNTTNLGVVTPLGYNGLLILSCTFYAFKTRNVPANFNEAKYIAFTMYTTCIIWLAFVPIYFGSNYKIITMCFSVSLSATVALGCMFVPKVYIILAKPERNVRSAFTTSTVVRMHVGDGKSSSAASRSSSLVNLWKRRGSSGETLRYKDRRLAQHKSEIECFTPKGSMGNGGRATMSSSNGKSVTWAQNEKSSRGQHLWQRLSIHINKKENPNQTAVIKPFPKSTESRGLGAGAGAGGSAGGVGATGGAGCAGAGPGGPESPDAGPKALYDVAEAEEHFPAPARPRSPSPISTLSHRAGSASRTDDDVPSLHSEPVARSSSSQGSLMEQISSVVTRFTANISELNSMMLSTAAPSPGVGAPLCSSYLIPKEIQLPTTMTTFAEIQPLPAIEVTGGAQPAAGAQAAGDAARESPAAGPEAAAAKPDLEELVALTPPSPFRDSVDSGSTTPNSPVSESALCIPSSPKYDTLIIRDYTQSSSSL
Type: cell-based
Protocol: B. mGluR5 In Vitro Functional Assay
The functional assay utilized an aequorin cell line expressing human recombinant mGluR5 receptor, an inducible cell line that expresses the human receptor under the control of a promoter induced by doxycycline.
mGluR5 cells in mid-log phase, grown 18 hours prior to the test in antibiotic-free media supplemented with doxycycline (600 ng/mL), were detached by gentle flushing with PBS-EDTA ([…]). The cells were recovered by centrifugation and resuspended in assay buffer (HBSS, […], 3 ug/mL glutamate-pyruvate transaminase, […] MEM sodium pyruvate, 0.1% BSA protease-free). Cells were incubated at room temperature for at least 4 hours with Coelenterazine h (Molecular Probes). The cell suspension (60 uL) containing the test compound was mixed with a solution of reference agonist (30 uL) at its EC80, following an incubation of 3 min. after the first injection. The resulting emission of light was recorded using a Hamamatsu Functional Drug Screening System 6000 (FDSS 6000). To standardize the emission of recorded light (determination of the “100% signal’) across plates and across different experiments, some of the wells contained 100 uM digitonin or a saturating concentration (20 mM) of ATP. Plates also contained the reference agonist (glutamate) at a concentration equivalent to the EC80 obtained during assay validation. Percentages of inhibition were calculated on the basis of the activation induced by the reference agonist at a concentration equal to the EC80. Dose-response data were analyzed with XLFit (IDBS) software using nonlinear regression applied to a sigmoidal dose-response model.
With `CC1CN(c2cc(F)cc(C#N)c2)Cc2oc(-c3ccccn3)nc21` (racemic) [Compound 81, (+/−)-3-Fluoro-5-(7-methyl-2-(pyridin-2-yl)-6,7-dihydrooxazolo[5,4-c]pyridin-5(4H)-yl)benzonitrile] the IC50 was under 1000 nM. Work on `CC1CN(c2cc(F)cc(C#N)c2)Cc2nc(-c3ccccn3)oc21` (racemic) [Compound 82, (+/−)-3-Fluoro-5-(7-methyl-2-(pyridin-2-yl)-6,7-dihydrooxazolo[4,5-c]pyridin-5(4H)-yl)benzonitrile] yielded an IC50 of under 1000 nM. `N#Cc1cccc(N2CCc3nc(-c4ccccn4)oc3C2)c1` [Compound 1, 3-(2-(Pyridin-2-yl)-6,7-dihydrooxazolo[5,4-c]pyridin-5(4H)-yl)benzonitrile] gave an IC50 of under 1000 nM. `c1ccc(-c2nc3c(o2)CN(c2ccccn2)CC3)nc1` [Compound 2, 2,5-Di(pyridin-2-yl)-4,5,6,7-tetrahydro-oxazolo[5,4-c]pyridine] was tested, and the IC50 was under 10000 nM. `N#Cc1cccnc1N1CCc2nc(-c3ccccn3)oc2C1` [Compound 3, 2-(2-(Pyridin-2-yl)-6,7-dihydrooxazolo[5,4-c]pyridin-5(4H)-yl)nicotinonitrile] gave an IC50 of under 1000 nM. With `N#Cc1cc(F)cc(N2CCc3nc(-c4ccccn4)oc3C2)c1` [Compound 4, 3-Fluoro-5-(2-(pyridin-2-yl)-6,7-dihydrooxazolo[5,4-c]pyridin-5(4H)-yl)benzonitrile] the IC50 was under 1000 nM. `c1ccc(-c2nc3c(o2)CN(c2cccnc2)CC3)nc1` [Compound 5, 2-(Pyridin-2-yl)-5-(pyridin-3-yl)-4,5,6,7-tetrahydrooxazolo[5,4-c]pyridine] gave an IC50 of over 10000 nM. `N#Cc1cccc(N2CCc3nc(-c4ccccn4)oc3C2)n1` [Compound 6, 6-(2-(Pyridin-2-yl)-6,7-dihydrooxazolo[5,4-c]pyridin-5(4H)-yl)picolinonitrile] was tested, and the IC50 was under 10000 nM. Compound `N#Cc1ccnc(N2CCc3nc(-c4ccccn4)oc3C2)c1` [Compound 7, 2-(2-(Pyridin-2-yl)-6,7-dihydrooxazolo[5,4-c]pyridin-5(4H)-yl)isonicotinonitrile] has an IC50 of under 10000 nM. For `N#Cc1cncc(N2CCc3nc(-c4ccccn4)oc3C2)c1` [Compound 8, 5-(2-(Pyridin-2-yl)-6,7-dihydrooxazolo[5,4-c]pyridin-5(4H)-yl)nicotinonitrile], the IC50 was under 10000 nM. For `N#Cc1cc(N2CCc3nc(-c4ccccn4)oc3C2)ccn1` [Compound 9, 4-(2-(Pyridin-2-yl)-6,7-dihydrooxazolo[5,4-c]pyridin-5(4H)-yl)picolinonitrile], the IC50 was under 10000 nM. In the case of `N#Cc1cc(Br)cc(N2CCc3nc(-c4ccccn4)oc3C2)c1` [Compound 10, 3-Bromo-5-(2-(pyridin-2-yl)-6,7-dihydrooxazolo[5,4-c]pyridin-5(4H)-yl)benzonitrile], the IC50 is reported as under 1000 nM. Work on `N#Cc1cc(N2CCOCC2)cc(N2CCc3nc(-c4ccccn4)oc3C2)c1` [Compound 11, 3-Morpholino-5-(2-(pyridin-2-yl)-6,7-dihydrooxazolo[5,4-c]pyridin-5(4H)-yl)benzonitrile] yielded an IC50 of over 10000 nM. Compound `N#Cc1cccc(C(=O)N2CCc3nc(-c4ccccn4)oc3C2)c1` [Compound 12, 3-(2-(Pyridin-2-yl)-4,5,6,7-tetrahydrooxazolo[5,4-c]pyridine-5-carbonyl)benzonitrile] has an IC50 of under 10000 nM. With `N#Cc1cccc(CN2CCc3nc(-c4ccccn4)oc3C2)c1` [Compound 13] the IC50 was under 10000 nM. With `Fc1cc(-c2ccncc2)cc(N2CCc3nc(-c4ccccn4)oc3C2)c1` [Compound 14, 5-(3-Fluoro-5-(pyridin-4-yl)phenyl)-2-(pyridin-2-yl)-4,5,6,7-tetrahydrooxazolo[5,4-c]pyridine] the IC50 was under 10000 nM. In the case of `N#Cc1cccc(N2CCc3nc(-c4cccc[n+]4[O-])oc3C2)c1` [Compound 15, 2-(5-(3-Cyanophenyl)-4,5,6,7-tetrahydrooxazolo[5,4-c]pyridin-2-yl)pyridine 1-oxide], the IC50 is reported as under 1000 nM. `N#Cc1cc(C#N)cc(N2CCc3nc(-c4ccccn4)oc3C2)c1` [Compound 16, 5-(2-(Pyridin-2-yl)-6,7-dihydrooxazolo[5,4-c]pyridin-5(4H)-yl)isophthalonitrile] gave an IC50 of under 10000 nM. `Fc1cc(F)cc(N2CCc3nc(-c4ccccn4)oc3C2)c1` [Compound 17, 5-(3,5-Difluorophenyl)-2-(pyridin-2-yl)-4,5,6,7-tetrahydrooxazolo[5,4-c]pyridine] showed an IC50 of under 1000 nM. `c1ccc(-c2nc3c(o2)CN(c2cnccn2)CC3)cc1` [Compound 18, 2-Phenyl-5-(pyrazin-2-yl)-4,5,6,7-tetrahydrooxazolo-[5,4-c]pyridine] gave an IC50 of under 10000 nM. For `N#Cc1cccnc1N1CCc2nc(-c3ccccc3)oc2C1` [Compound 19, 2-(2-Phenyl-6,7-dihydrooxazolo[5,4-c]pyridin-5(4H)-yl)nicotinonitrile], the IC50 was under 10000 nM. `c1ccc(-c2nc3c(o2)CN(c2ccccn2)CC3)cc1` [Compound 20, 2-Phenyl-5-(pyridin-2-yl)-4,5,6,7-tetrahydrooxazolo-[5,4-c]pyridine] was tested, and the IC50 was over 10000 nM. With `N#Cc1cc(F)cc(N2CCc3nc(-c4ccccc4)oc3C2)c1` [Compound 21, 3-Fluoro-5-(2-phenyl-6,7-dihydrooxazolo[5,4-c]pyridin-5(4H)-yl)benzonitrile] the IC50 was under 1000 nM. Compound `c1ccc(-c2nc3c(o2)CN(c2nccs2)CC3)nc1` [Compound 22, 2-(Pyridin-2-yl)-5-(thiazol-2-yl)-4,5,6,7-tetrahydrooxazolo[5,4-c]pyridine] has an IC50 of under 10000 nM. `N#Cc1cccc(N2CCc3oc(-c4ccccn4)nc3C2)c1` [Compound 23, 3-(2-(Pyridin-2-yl)-6,7-dihydrooxazolo[4,5-c]pyridin-5(4H)-yl)benzonitrile] showed an IC50 of under 1000 nM. For `N#Cc1ccnc(N2CCc3oc(-c4ccccn4)nc3C2)c1` [Compound 24, 2-(2-(Pyridin-2-yl)-6,7-dihydrooxazolo[4,5-c]pyridin-5(4H)-yl)isonicotinonitrile], the IC50 was under 1000 nM. For `N#Cc1cncc(N2CCc3oc(-c4ccccn4)nc3C2)c1` [Compound 25, 5-(2-(Pyridin-2-yl)-6,7-dihydrooxazolo[4,5-c]pyridin-5(4H)-yl)nicotinonitrile], the IC50 was under 1000 nM. With `N#Cc1cc(N2CCc3oc(-c4ccccn4)nc3C2)ccn1` [Compound 26, 4-(2-(Pyridin-2-yl)-6,7-dihydrooxazolo[4,5-c]pyridin-5(4H)-yl)picolinonitrile] the IC50 was under 1000 nM. Compound `c1ccc(-c2nc3c(o2)CCN(c2ccccn2)C3)nc1` [Compound 27, 2,5-Di(pyridin-2-yl)-4,5,6,7-tetrahydrooxazolo[4,5-c]pyridine] has an IC50 of under 1000 nM. Compound `N#Cc1cccnc1N1CCc2oc(-c3ccccn3)nc2C1` [Compound 28, 2-(2-(Pyridin-2-yl)-6,7-dihydrooxazolo[4,5-c]pyridin-5(4H)-yl)nicotinonitrile] has an IC50 of under 1000 nM. In the case of `N#Cc1cccc(N2CCc3oc(-c4ccccn4)nc3C2)n1` [Compound 29, 6-(2-(Pyridin-2-yl)-6,7-dihydrooxazolo[4,5-c]pyridin-5(4H)-yl)picolinonitrile], the IC50 is reported as under 1000 nM. With `N#Cc1cc(F)cc(N2CCc3oc(-c4ccccn4)nc3C2)c1` [Compound 30, 3-Fluoro-5-(2-(pyridin-2-yl)-6,7-dihydrooxazolo[4,5-c]pyridin-5(4H)-yl)benzonitrile] the IC50 was under 1000 nM. Work on `Fc1cc(F)cc(N2CCc3oc(-c4ccccn4)nc3C2)c1` [Compound 31, 5-(3,5-Difluorophenyl)-2-(pyridin-2-yl)-4,5,6,7-tetrahydrooxazolo[4,5-c]pyridine] yielded an IC50 of under 1000 nM. For `N#Cc1cc(N2CCc3oc(-c4ccccn4)nc3C2)cc(C(F)(F)F)c1` [Compound 32, 3-(2-(Pyridin-2-yl)-6,7-dihydrooxazolo[4,5-c]pyridin-5(4H)-yl)-5-(trifluoromethyl)benzonitrile], the IC50 was under 1000 nM. In the case of `N#Cc1cc(F)cc(N2CCc3oc(-c4ccc(F)cn4)nc3C2)c1` [Compound 33, 3-Fluoro-5-(2-(5-fluoropyridin-2-yl)-6,7-dihydrooxazolo[4,5-c]pyridin-5(4H)-yl)benzonitrile], the IC50 is reported as under 1000 nM. Compound `N#Cc1cccc(CN2CCc3oc(-c4ccccn4)nc3C2)c1` [Compound 34] has an IC50 of under 1000 nM.

Same assay, conditions: Table 2; aequorin cell line expressing human mGluR5, reference agonist glutamate at EC80; obtained in duplicate; read-out: IC50
`Clc1ccccc1C1CCc2oc(-c3ccccn3)nc2C1` (racemic) [Compound 219, 5-(2-Chlorophenyl)-2-(pyridin-2-yl)-4,5,6,7-tetrahydrobenzo[d]oxazole] showed an IC50 of under 1000 nM. In the case of `Fc1ccc(C2CCc3oc(-c4ccccn4)nc3C2)c(Cl)c1` (racemic) [Compound 223, 5-(2-Chloro-4-fluorophenyl)-2-(pyridin-2-yl)-4,5,6,7-tetrahydrobenzo[d]oxazole], the IC50 is reported as under 1000 nM. `Clc1ccccc1[C@@H]1CCc2oc(-c3ccccn3)nc2C1` (single isomer, unassigned) [Compound 220] was tested, and the IC50 was under 1000 nM. In the case of `Clc1ccccc1[C@H]1CCc2oc(-c3ccccn3)nc2C1` (single isomer, unassigned) [Compound 221], the IC50 is reported as under 1000 nM. With `Fc1ccc([C@@H]2CCc3oc(-c4ccccn4)nc3C2)c(Cl)c1` (single isomer, unassigned) [Compound 224] the IC50 was under 1000 nM. For `Fc1ccc([C@H]2CCc3oc(-c4ccccn4)nc3C2)c(Cl)c1` (single isomer, unassigned) [Compound 225], the IC50 was under 1000 nM.
